Assay results reported in US11168106B1, “Synthesis and stabilization of nicotinamide ribose and its derivatives” (priority 2017, dated 2021).

Legend:
[1] = system: NAD; conditions: healthy middle-aged and older adults, cited from earlier work
[2] = Decomposition of nicotinamide ribose in water with and without borate, HPTLC read at 254 nm; format: physicochemical; conditions: for Area [%] of assigned substance, decomposition of nicotinamide ribose with borate: boric acid added in 1:1 molar ratio, in water; for Area [%] of assigned substance, decomposition of nicotinamide ribose with borate / Area [%] of assigned substance, decomposition of nicotinamide ribose without borate: water bath 65° C., 8 h, HPTLC at 254 nm; for Area [%] of assigned substance, decomposition of nicotinamide ribose without borate: 1 mg/mL in water
Procedure: Nicotinamide riboside (NR) as its chloride salt was used at 100 mM. Boric acid: was used at 300 mM. All samples were prepared in water. This, 1 mg/mL of nicotinamide riboside of capsule content was weighed in a 25 mL volumetric flask. Water was added to 25 mL total volume. For the reaction in the presence of boric acid, the same was done with boric acid added in a 1:1 molar ratio. In either case, 5 mL of each solution prepared was placed in the water bath at 65° C. A control was incubated at room temperature. After incubation for 8 h, 2 μL of each solution (heated and not heated) are placed on the HPTLC plate. The plate is eluted in the following mobile phase: ethanol, ammonium acetate 1 M (7:3). The plate is read at 254 nm to obtain the respective peaks.

| SMILES | Effect on NAD level ([1]; chronic supplementation) | Tolerability of chronic supplementation [1] | Area [%] of assigned substance, decomposition of nicotinamide ribose with borate [2] [%] | Stabilization with respect to decomposition ([2]; boric acid vs no boric acid (FIG. 3 and FIG. 4)) | Area [%] of assigned substance, decomposition of nicotinamide ribose without borate [2] [%] |
| --- | --- | --- | --- | --- | --- |
| NC(=O)c1ccc[n+]([C@@H]2O[C@H](CO)[C@@H](O)[C@H]2O)c1 [Nicotinamide riboside] | elevates NAD | well-tolerated | 86.08 | stabilized by boric acid | 70.1878 |
| NC(=O)c1cccnc1 [Nicotinamide] | – | – | 13.92 | – | 29.8122 |
